Data on 22 compounds can be found in patent publication US8404713B2, “Quinolinone derivatives as PARP inhibitors” (Janssen Pharmaceutica NV, priority 2007, dated 2013).

In one series the target is T1, Human PARP-1 enzyme (Homo sapiens, UniProt P09874).
T1 construct: purchased Trevigen
In words: In vitro scintillation proximity assay (SPA) for PARP-1 inhibitory activity. Format: biochemical. The settings on record: nicked DNA activated PARP-1, [3H]-NAD+, biotinylated histones; tested between 10^-5 M and 3x10^-9 M; read-out: in vitro SPA assay PARP-1 pIC50 (converted). The protocol:
C.1. In Vitro Scintillation Proximity Assay (SPA) for PARP-1 Inhibitory Activity
Compounds of the present invention were tested in an in vitro assay based on SPA technology (proprietary to GE healthcare).
In principle, the assay relies upon the well established SPA technology for the detection of poly(ADP-ribosyl)ation of biotinylated target proteins, i.e histones. This ribosylation is induced using nicked DNA activated PARP-1 enzyme and [^3H]-nicotinamide adenine dinucleotide ([^3H]-NAD^+) as ADP-ribosyl donor.
Histones (type II-A, supplier: Sigma) were biotinylated using the biotinylation kit of Amersham and stored aliquoted at −20° C. A stock solution of 100 mg/ml SPA poly(vinyl toluene) (PVT) beads (supplier: Amersham) was made in PBS. A stock solution of 61.6 nM [^3H]-NAD^+ was made by adding [^3H]-NAD^+ (0.1 mCi/ml, supplier: Perkin Elmer) to incubation buffer (50 mM Tris/HCl, pH 8; 0.2 mM DTT; 4 mM MgCl2). A solution of 4 mM NAD^+ (supplier: Sigma) was made. Human PARP-1 enzyme was obtained from Trevigen. Biotinylated histones and PVT-SPA beads were mixed and pre-incubated for 30 min. at room temperature. PARP-1 enzyme (concentration was lot dependent) was mixed with the nicked DNA and the mixture was pre-incubated for 30 min. at 4° C. Equal parts of this histones/PVT-SPA beads solution and PARP-1 enzyme/DNA solution were mixed and 75 μl of this mixture together with 1 μl of compound in DMSO and 25 μl of [^3H]-NAD^+ was added per well into a 96-well microtiterplate. The final concentrations in the incubation mixture were 2 μg/ml for the biotinylated histones, 2 mg/ml for the PVT-SPA beads, 0.25 μg/ml for the nicked DNA and between 0.1-0.2 μg/ml for the PARP-1 enzyme. After incubation of the mixture for 20 min. at room temperature, the reaction was terminated by adding 100 μl of 4 mM NAD^+ in water (final concentration 2 mM) and plates were mixed. The beads were sedimented by centrifugation (10 min, 800 rpm). and plates transferred to a TopCountNXT™ (Packard) for scintillation counting, values were expressed as counts per minute (cpm). For each experiment, controls (containing PARP-1 enzyme and DMSO without compound), a blank incubation (containing DMSO but no PARP-1 enzyme, no DNA or compound) and samples (containing PARP-1 enzyme, DNA and compound dissolved in DMSO) were run in parallel. All compounds tested were dissolved and eventually further diluted in DMSO. A dose-response curve was made wherein the compounds were tested at concentrations between 10^−5M and 3×10^−9M. In each test, the blank value was subtracted from both the control and the sample values. The control sample represented maximal PARP-1 enzyme activity. For each sample, the amount of cpm was expressed as a percentage of the mean cpm value of the controls. When appropriate, IC50-values (concentration of the drug, needed to reduce the PARP-1 enzyme activity to 50% of the control) were computed using linear interpolation between the experimental points just above and below the 50% level. Herein the effects of test compounds are expressed as pIC50 (the negative log value of the IC50-value). As a reference compound, 4-amino-1,8-naphthalimide was included to validate the SPA assay.

For a further series, the target named is T2, TANK-2 enzyme (Homo sapiens, UniProt Q9H2K2).
T2 construct: made in house
T2 sequence (Q9H2K2 1-1166): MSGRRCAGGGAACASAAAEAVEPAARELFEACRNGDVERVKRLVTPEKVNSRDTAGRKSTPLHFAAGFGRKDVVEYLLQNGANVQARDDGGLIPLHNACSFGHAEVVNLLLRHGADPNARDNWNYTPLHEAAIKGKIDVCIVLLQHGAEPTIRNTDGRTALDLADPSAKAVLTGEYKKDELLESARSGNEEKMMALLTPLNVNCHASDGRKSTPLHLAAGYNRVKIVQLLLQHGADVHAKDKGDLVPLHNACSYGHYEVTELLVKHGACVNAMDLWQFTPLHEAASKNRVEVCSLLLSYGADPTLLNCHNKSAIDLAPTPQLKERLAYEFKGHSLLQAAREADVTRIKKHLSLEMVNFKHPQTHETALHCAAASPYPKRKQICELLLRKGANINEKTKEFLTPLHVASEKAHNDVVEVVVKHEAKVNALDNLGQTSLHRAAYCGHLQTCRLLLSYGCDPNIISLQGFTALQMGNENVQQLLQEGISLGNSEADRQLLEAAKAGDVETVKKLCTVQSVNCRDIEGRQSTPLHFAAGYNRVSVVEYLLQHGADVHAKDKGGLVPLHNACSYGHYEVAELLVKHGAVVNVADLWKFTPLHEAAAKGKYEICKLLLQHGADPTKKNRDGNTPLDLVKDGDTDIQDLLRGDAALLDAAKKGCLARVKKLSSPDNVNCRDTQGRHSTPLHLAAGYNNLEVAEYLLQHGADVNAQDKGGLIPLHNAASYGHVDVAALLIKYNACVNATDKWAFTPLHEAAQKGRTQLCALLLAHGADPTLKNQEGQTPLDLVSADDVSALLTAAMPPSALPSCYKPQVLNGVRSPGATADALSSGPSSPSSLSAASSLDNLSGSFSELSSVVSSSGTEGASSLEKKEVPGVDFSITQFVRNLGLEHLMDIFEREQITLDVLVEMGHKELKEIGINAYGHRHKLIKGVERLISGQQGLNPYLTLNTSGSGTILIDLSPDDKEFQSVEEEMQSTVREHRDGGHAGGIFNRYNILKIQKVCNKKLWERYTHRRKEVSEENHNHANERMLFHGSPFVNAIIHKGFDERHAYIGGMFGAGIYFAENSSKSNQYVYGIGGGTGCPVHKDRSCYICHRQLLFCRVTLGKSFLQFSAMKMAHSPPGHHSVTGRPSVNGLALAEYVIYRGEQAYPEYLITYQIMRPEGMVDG
In words: In vitro scintillation proximity assay (SPA) for TANK-2 inhibitory activity. In kind it is biochemical. The settings on record: auto-poly(ADP-ribosyl)ation, Ni flash plates; 96-well results if available, otherwise 384-well; tested between 10^-5 M and 3x10^-8 M; read-out: in vitro SPA assay TANK-2 pIC50 (converted). The protocol:
C.2. In Vitro Scintillation Proximity Assay (SPA) for TANK-2 Inhibitory Activity
Compounds of the present invention were tested in an in vitro assay based on SPA technology with Ni Flash plates (96 or 384 well).
In principle, the assay relies upon SPA technology for the detection of auto-poly(ADP-ribosyl)ation of TANK-2 protein using [^3H]-nicotinamide adenine dinucleotide ([^3H]-NAD^+) as ADP-ribosyl donor.
A stock solution of 100 nM [^3H]-NAD^+/NAD (0.1 mCi/ml, supplier: Perkin Elmer) and 0.25 mM NAD (Sigma) was made in assay buffer (60 mM Tris/HCl, pH 7.4; 0.9 mM DTT; 6 mM MgCl2). The TANK-2 enzyme was produced as described in EP1238063. 60 μl of assay buffer, together with 1 μl of compound in DMSO, 20 μl of [^3H]-NAD^+/NAD and 20 μl of TANK-2 enzyme (final concentration 8 μg/ml) was added per well into a 96-well Ni-coated flash plate (Perkin Elmer). After incubation of the mixture for 120 min. at room temperature, the reaction was terminated by adding 60 μl of stopsolution (42.6 mg NAD in 6 ml H2O). The plates were covered with a plate sealer and placed in a TopCountNX™ (Packard) for scintillation counting. Values were expressed as counts per minute (cpm). For each experiment, controls (containing TANK-2 enzyme and DMSO without compound), a blank incubation (containing DMSO but no TANK-2 enzyme or compound) and samples (containing TANK-2 enzyme and compound dissolved in DMSO) were run in parallel. All compounds tested were dissolved and eventually further diluted in DMSO. […] In each test, the blank value was subtracted from both the control and the sample values. The control sample represented maximal TANK-2 enzyme activity. For each sample, the amount of cpm was expressed as a percentage of the mean cpm value of the controls. When appropriate, IC50-values (concentration of the drug, needed to reduce the TANK-2 enzyme activity to 50% of the control) were computed using linear interpolation between the experimental points just above and below the 50% level. Herein the effects of test compounds are expressed as pIC50 (the negative log value of the IC50-value). As reference compounds, 3-aminobenzamide and 4-amino-1,8-naphtalimide were included to validate the SPA assay. Herein the assay was described using 96-well plates. In the assay using 384-well plates the same final concentrations were used and volumes were adapted.

Counter-ions that a name gives are not always drawn. Where only a bound is given, the exact number is not on record here.

T1 sequence (P09874 whole entry): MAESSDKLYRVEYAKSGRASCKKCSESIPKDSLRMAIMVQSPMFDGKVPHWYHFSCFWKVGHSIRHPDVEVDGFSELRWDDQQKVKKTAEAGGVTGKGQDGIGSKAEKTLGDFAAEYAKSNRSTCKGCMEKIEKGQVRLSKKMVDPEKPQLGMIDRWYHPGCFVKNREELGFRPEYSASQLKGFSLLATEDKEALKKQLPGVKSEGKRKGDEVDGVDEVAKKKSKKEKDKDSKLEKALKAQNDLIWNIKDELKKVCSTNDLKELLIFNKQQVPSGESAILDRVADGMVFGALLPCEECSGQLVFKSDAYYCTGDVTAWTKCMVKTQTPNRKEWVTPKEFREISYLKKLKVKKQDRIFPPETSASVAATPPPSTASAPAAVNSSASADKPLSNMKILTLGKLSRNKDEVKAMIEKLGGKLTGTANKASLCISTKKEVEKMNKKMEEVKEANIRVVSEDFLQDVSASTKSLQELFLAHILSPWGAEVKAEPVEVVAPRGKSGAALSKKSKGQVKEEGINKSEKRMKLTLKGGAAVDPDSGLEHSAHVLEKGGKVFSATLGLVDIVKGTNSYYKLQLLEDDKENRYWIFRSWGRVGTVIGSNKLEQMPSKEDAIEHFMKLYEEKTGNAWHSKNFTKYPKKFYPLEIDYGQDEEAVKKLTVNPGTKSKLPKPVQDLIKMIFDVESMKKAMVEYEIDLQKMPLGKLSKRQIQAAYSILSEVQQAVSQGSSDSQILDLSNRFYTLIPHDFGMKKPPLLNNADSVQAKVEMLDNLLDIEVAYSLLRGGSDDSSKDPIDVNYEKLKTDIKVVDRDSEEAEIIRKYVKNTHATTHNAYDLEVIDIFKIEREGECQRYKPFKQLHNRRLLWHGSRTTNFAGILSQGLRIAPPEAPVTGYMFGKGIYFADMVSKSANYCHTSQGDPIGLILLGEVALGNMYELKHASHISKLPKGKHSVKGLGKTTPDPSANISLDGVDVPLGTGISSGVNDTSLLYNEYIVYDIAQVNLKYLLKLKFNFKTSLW

`CCc1cc2ccc(C(O)CN3CCOCC3)cc2[nH]c1=O` (centres unmarked) [Compound 4]: the melting point turned out to be 163 °C. Moreover, the IC50 at Human PARP-1 enzyme is 201 nM. Also, at TANK-2 enzyme, the IC50 was 225 nM.
`CCOC(=O)c1cnc(N2CCN(Cc3ccc4cc(CC)c(=O)[nH]c4c3)CC2)nc1` [Compound 11] had a melting point of 235 °C. In addition, at Human PARP-1 enzyme, the IC50 is 51.3 nM. Also, the IC50 at TANK-2 enzyme was 36.1 nM.
The matching figures for `CCc1cc2ccc(CN3CCN(c4ncc(C(N)=O)cn4)CC3)cc2[nH]c1=O` [Compound 16]: above 250 °C, 7.4 nM and 36.2 nM.
`CCc1cc2ccc(CNCCc3c[nH]c4ccccc34)cc2[nH]c1=O` [Compound 1] displayed a melting point of 155 °C. Moreover, the IC50 on Human PARP-1 enzyme is 13.4 nM. The IC50 on TANK-2 enzyme was 1440 nM.
The matching figures for `Cc1cc2ccc(CN3CCC(c4ccccc4)CC3)cc2[nH]c1=O` [Compound 7]: 225 °C, 1.52 nM and above 10000 nM.
On to `Cc1cc2ccc(C(C)N3CCCC3)cc2[nH]c1=O` (centres unmarked) [Compound 68], for which the melting point stood at 133 °C. Moreover, the IC50 on Human PARP-1 enzyme was 0.759 nM. Further, the IC50 at TANK-2 enzyme was 2140 nM.
In the case of `CCc1cc2ccc(CCCN3CCN(c4ccc(C#N)cn4)CC3)cc2[nH]c1=O` (as salt: HCl) [Compound 8], the melting point is 174 °C.
For the compound `CCc1cc2c(OC)cc(CN3CCN(c4ccccc4OC)CC3)cc2[nH]c1=O` [Compound 64], the melting point came out at 80 °C. For the same compound, the IC50 at Human PARP-1 enzyme is 3.02 nM. On TANK-2 enzyme, the IC50 was 4470 nM.
For `CCc1cc2ccc(C(C(C)C)N3CCN(c4ccc(C#N)cn4)CC3)cc2[nH]c1=O` (centres unmarked) [Compound 13], the melting point came to 135 °C. Moreover, on Human PARP-1 enzyme, the IC50 was 3.94 nM. For the same compound, on TANK-2 enzyme, the IC50 is 269 nM.
In the case of `CCc1cc2ccc(CN3CCC(c4ccccc4)CC3)cc2[nH]c1=O` [Compound 3], the melting point turned out to be 184 °C. The IC50 on Human PARP-1 enzyme is 1.24 nM. Moreover, on TANK-2 enzyme, the IC50 was 5450 nM.
The matching figures for `CCc1cc2ccc(C(CO)N3CCC(Cc4ccccc4)CC3)cc2[nH]c1=O` (centres unmarked) [Compound 9]: 172 °C, 109 nM and 3100 nM.
The matching figures for `Cc1cc2ccc(C(C)N3CCN(c4ccccc4C#N)CC3)cc2[nH]c1=O` (centres unmarked) [Compound 20]: 190 °C, 1.08 nM and 940 nM.
The matching figures for `CCc1cc2ccc(C(C)NCCc3c[nH]c4ccccc34)cc2[nH]c1=O` (centres unmarked) [Compound 14]: 170 °C, 70.1 nM and 428 nM.
In turn, `CCc1cc2ccc(CNC3CCN(c4ncccn4)CC3)cc2[nH]c1=O` [Compound 15] returned a melting point of 168 °C. Moreover, the IC50 on Human PARP-1 enzyme was 77.4 nM. On TANK-2 enzyme, the IC50 is 2150 nM.
`CCc1cc2ccc(CN3CCN(c4ccccn4)CC3)cc2[nH]c1=O` [Compound 2] displayed a melting point of 252 °C. The IC50 on Human PARP-1 enzyme is 0.605 nM. In addition, on TANK-2 enzyme, the IC50 was 687 nM.
Compound `CCc1cc2ccc(C(=O)N3CCc4ccccc4C3)cc2[nH]c1=O` [Compound 10] showed a melting point of 255 °C. For the same compound, at Human PARP-1 enzyme, the IC50 is 108 nM. On TANK-2 enzyme, the IC50 is 454 nM.
In the case of `CCc1cc2ccc(CN3Cc4ccccc4C3)cc2[nH]c1=O` [Compound 63], the IC50 at Human PARP-1 enzyme was 39.2 nM; on TANK-2 enzyme, 455 nM.
Take `CCc1cc2ccc(CN3CCN(c4ccccc4Cl)CC3)cc2[nH]c1=O` [Compound 18]: the results for the IC50 on Human PARP-1 enzyme and on TANK-2 enzyme were 0.566 nM and 1930 nM, respectively.
`COc1ccccc1N1CCN(Cc2ccc3cc(C)c(=O)[nH]c3c2)CC1` [Compound 23] showed a melting point of 198 °C. Moreover, the IC50 on Human PARP-1 enzyme was 0.251 nM. The IC50 on TANK-2 enzyme was above 10000 nM.
Take `CCc1cc2ccc(CN3CCN(c4ccc(OC)cc4)CC3)cc2[nH]c1=O` [Compound 42]: the IC50 on Human PARP-1 enzyme was 0.893 nM; at TANK-2 enzyme it was 1300 nM.
The matching figures for `CCc1cc2ccc(CN(C)CCOC)cc2[nH]c1=O` [Compound 38]: 11.9 nM and 867 nM.
For the compound `CCc1cc2ccc(CN3CCN(c4ccc(C#N)cn4)CC3)cc2[nH]c1=O` [Compound 17], the figures for the IC50 at Human PARP-1 enzyme and at TANK-2 enzyme were 0.865 nM and 76.6 nM, respectively.
